“Also recorded” adds a separate entry of the source. Read-outs that look alike come from different tables or passages of the source.
Experiments:
[1] = system: ABT-199 resistant MM lines (KMS11, L363, RPMI-8226, MM.1S, U266)
Description: Complex I inhibition with piercidin or SDHA inhibition with 3-NPA. L363, MM.15 and KMS 11 cells were cultured in the presence or absence of 0.S μM ABT-199 with or without either Complex I inhibitor piericidin (0.001 mM) or Complex II inhibitor 3NPA (1 mM) or TTFA (100 μM) for 24 hrs.
KMS11, L363, RPMI-8226, MM.1S, U266 (ABT-199 resistant cell lines) and KMS12PE and OCIMY5 (ABT-199 sensitive cell lines) were cultured in presence of SQR inhibitor TTFA (100 uM) or DEX (0.5 uM) either alone or in combination with ABT-199 (0.5 uM) for 24 hrs. Cell viability was assessed by Annexin V-DAPI staining and Flow cytometry.
Resistant MM lines were treated with TTFA and/or a dose range of ABT-199 and cell death evaluated by Annexin V/DAPI staining.

[2] = molecular target: Complex II/SDH succinate ubiquinone reductase (SQR) activity (Homo sapiens, UniProt O14521+P21912+P31040+Q99643); experiment: SQR (succinate ubiquinone reductase) activity assay in permeabilized cells, DCPIP absorbance at 600 nm; details: for SQR activity upon addition of inhibitor: KMS11 cells, 20 mM succinate as substrate, malonate 5 mM
Description: Cells are resuspended in permeabilization buffer (10 mM KH2PO4 pH 7.8, 2 mM EDTA and 1 mg/ml BSA). 20 mM succinate is added as a substrate with or without 5 mM malonate (an SDH inhibitor) followed by a 10 min incubation at RT. SQR activity is determined by measuring electron transfer from succinate to decylubiquinone and 2,6-dichlorophenolindophenol (DCPIP) that leads to a change in absorbance of DCPIP monitored at 600 nm for 10 min.
SQR activity is measured in live permeabilized cells, with intact mitochondria by pre-treating with inhibitors of Complex I (rotenone) and Complex III (antimycin) leaving Complex II/SDH activity intact. SQR activity correlates with electron transfer from ubiquinone bound in SQR's Qp site to the redox sensitive dye, DCIPIP.

[3] = system: BIM, BIM-Bcl-2 binding, Foxo3a; experiment: Protein expression and co-immunoprecipitation analyses upon SDH inhibition; type: cell-based
From the text: Thus, a tumor selective approach of metabolically-driven synthetic lethality relies on inhibition of the mitochondrial enzyme SDH and use of the Bcl-2 antagonist, e.g., ABT-199 for myeloma therapy.

[4] = system: normal cell populations contained within the bone marrow aspirate of patient sample; experiment: Cytotoxicity in normal cells within myeloma patient sample; type: cell-based
From the text: Synthetic lethality are not cytotoxic as a single agent in cell lines or primary normal cells associated with a myeloma patient sample.

[5] = system: CD38+ve MM cells from myeloma patient samples; experiment: Cytotoxicity in myeloma patient sample cells; type: cell-based, human; details: TTFA with ABT-199
[6] = system: MM patients exhibiting the (11;14) translocation; details: t(11;14) patients, cited from earlier work
[7] = ABT-199 0.5 μM with TTFA 100 μM, piericidin 0.001 mM or 3NPA 1 mM, 24 hrs, Annexin V/DAPI

Sequence of Complex II/SDH succinate ubiquinone reductase (SQR) activity (P31040 43-664): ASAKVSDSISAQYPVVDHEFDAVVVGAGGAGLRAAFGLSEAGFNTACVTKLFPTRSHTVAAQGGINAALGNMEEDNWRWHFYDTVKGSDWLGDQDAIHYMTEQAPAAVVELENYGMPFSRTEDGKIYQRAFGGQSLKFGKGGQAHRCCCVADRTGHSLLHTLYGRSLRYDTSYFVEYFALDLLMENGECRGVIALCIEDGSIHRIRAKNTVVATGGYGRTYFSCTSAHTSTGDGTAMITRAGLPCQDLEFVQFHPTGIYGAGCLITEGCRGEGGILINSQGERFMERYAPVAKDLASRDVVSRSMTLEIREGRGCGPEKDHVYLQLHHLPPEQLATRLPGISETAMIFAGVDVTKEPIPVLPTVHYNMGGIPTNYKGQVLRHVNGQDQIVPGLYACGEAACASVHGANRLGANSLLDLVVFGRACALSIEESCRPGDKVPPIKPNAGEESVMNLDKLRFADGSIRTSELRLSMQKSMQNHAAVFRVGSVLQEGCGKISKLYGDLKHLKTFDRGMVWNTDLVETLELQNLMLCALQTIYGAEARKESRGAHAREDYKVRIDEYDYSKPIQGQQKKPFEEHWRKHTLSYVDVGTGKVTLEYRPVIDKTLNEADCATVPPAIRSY
Sequence of Complex II/SDH succinate ubiquinone reductase (SQR) activity (P21912 29-280): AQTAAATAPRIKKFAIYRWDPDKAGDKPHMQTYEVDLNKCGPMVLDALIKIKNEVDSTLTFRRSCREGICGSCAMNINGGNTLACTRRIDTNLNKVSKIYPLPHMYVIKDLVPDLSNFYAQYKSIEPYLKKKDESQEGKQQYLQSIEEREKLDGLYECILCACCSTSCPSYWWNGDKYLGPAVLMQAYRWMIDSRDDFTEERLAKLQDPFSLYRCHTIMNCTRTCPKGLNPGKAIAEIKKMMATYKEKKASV
Sequence of Complex II/SDH succinate ubiquinone reductase (SQR) activity (Q99643 30-169): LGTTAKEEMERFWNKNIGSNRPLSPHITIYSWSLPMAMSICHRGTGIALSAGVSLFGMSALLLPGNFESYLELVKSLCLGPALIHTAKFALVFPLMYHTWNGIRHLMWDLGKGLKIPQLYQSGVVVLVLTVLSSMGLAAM
Sequence of Complex II/SDH succinate ubiquinone reductase (SQR) activity (O14521 57-159): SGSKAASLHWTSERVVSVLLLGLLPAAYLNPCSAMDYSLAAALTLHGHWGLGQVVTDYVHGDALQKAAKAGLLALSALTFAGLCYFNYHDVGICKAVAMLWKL

Compound: C/C=C(\C)[C@H](O)[C@H](C)/C=C(C)/C=C/C/C(C)=C/Cc1nc(OC)c(OC)c(O)c1C [piericidin]
- Sensitization of resistant MM cell lines to ABT-199 [1, 7]: not as effective

Compound: O=C(CC(=O)C(F)(F)F)c1cccs1 [TTFA, 4,4,4-trifluoro-1-(thiophen-2-yl)butane-1,3-dione]
- SQR activity upon addition of inhibitor [2]: lack of activity
- SQR activity at maximal dose of TTFA that did not cause cytotoxicity in MM ([2]; MM cells): inhibited SQR activity
- BIM expression ([3]; SDH inhibition with TTFA): induction of BIM
- BIM-Bcl-2 binding (co-immunoprecipitation) ([3]; SDH inhibition with TTFA): enhanced BIM-Bcl-2 binding
- Foxo3a localization ([3]; TTFA treated cells): nuclear localization
- Foxo3a phosphorylation ([3]; TTFA treated cells): reduction of Foxo3a phosphorylation
- Cytotoxicity as single agent in MM [1]: did not elicit cytotoxicity
- Sensitization of resistant MM cell lines to ABT-199 [1]: potent sensitization; also recorded: sensitizes MM cells to ABT-199; also recorded: sensitized resistant MM cells to ABT-199
- Effect on Dex-induced death ([1]; TTFA 100 uM, DEX 0.5 uM, ABT-199 0.5 uM, 24 hrs): additive to Dex-induced death
- Cytotoxicity in normal cells of myeloma patient sample [4]: did not exhibit significant cytotoxicity
- Sensitization of MM patient cells to ABT-199 [5]: potent sensitization; also recorded: sensitizes

Compound: O=C(O)CC[N+](=O)[O-] [3-NPA]
- Sensitization of resistant MM cell lines to ABT-199 [1, 7]: not as effective
- Sensitization of resistant MM cell lines to ABT-199 ([1]; ABT-199 0.5 μM with TTFA 100 μM, piericidin 0.001 mM or 3NPA 1 mM, 24 hrs, Annexin V/DAPI, listed as 3NPA): not as effective as TTFA

Compound: COc1[nH]c(=O)c(C(=O)C(C)CC(C)C(Cl)CCl)c(O)c1OC (centres unmarked) [atpenin A5, 3-[5,6-dichloro-2,4-dimethylhexanoyl]-4-hydroxy-5,6-dimethoxy-1H-pyridin-2-one]
- Sensitization of resistant MM cell lines to ABT-199 [1, 7]: sensitizes resistant cell lines

Compound: malonate
- SQR activity upon addition of inhibitor [2]: lack of activity

Compound: CC1(C)CCC(CN2CCN(c3ccc(C(=O)NS(=O)(=O)c4ccc(NCC5CCOCC5)c([N+](=O)[O-])c4)c(Oc4cnc5[nH]ccc5c4)c3)CC2)=C(c2ccc(Cl)cc2)C1 [ABT-199, 4-(4-{[2-(4-chlorophenyl)-4,4-dimethylcyclohex-1-en-1-yl]methyl}piperazin-1-yl)-N-({3-nitro-4-[(tetrahydro-2H-pyran-4-ylmethyl)amino]phenyl}sulfonyl)-2-(1H-pyrrolo[2,3-b]pyridin-5-yloxy)benzamide]
- Cytotoxicity as single agent in MM ([1]; individually): did not elicit cytotoxicity
- Cytotoxicity in normal cells of myeloma patient sample ([4]; bone marrow aspirate of patient sample #2): did not exhibit significant cytotoxicity
- Share of t(11;14) MM patients responsive to single agent ([6]; listed as venetoclax): About 40%
- Share of t(11;14) MM patients responsive to single agent [6]: 40%

Reference: US12357629B2, “Uses of BCL-2 antagonists for treating cancer and diagnostics related thereto” (Emory University, priority 2018, dated 2025)
